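Dose response: 5 concentrations. Exposure: 48 h. Format: 96-well plates. Endpoint: linear interpolation; highest concentration if not reached. Abbreviation: GI50, concentration required for 50% inhibition of growth.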 Calls of active or inactive are those of the source. Rule as the data show it: active = GI50 up to about 1.1 µM and inactive = higher.
Experiments:
Assay in all cases: NCI anticancer screen, dose series, 48 h
SW-620 = tested on: SW-620
A549 = tested on: A549
RPMI-8226 = tested on: RPMI-8226
MDA-MB-435 = tested on: MDA-MB-435
MOLT-4 = tested on: MOLT-4
KM12 = tested on: KM12
UACC-62 = tested on: UACC-62
SK-MEL-2 = tested on: SK-MEL-2
SK-MEL-5 = tested on: SK-MEL-5
SF-268 = tested on: SF-268
T47D = tested on: T47D
OVCAR-4 = tested on: OVCAR-4
HCT-15 = tested on: HCT-15
SNB-75 = tested on: SNB-75
786-0 = tested on: 786-0
HCC 2998 = tested on: HCC 2998
Hs-578T = tested on: Hs-578T
PC-3 = tested on: PC-3
IGROV-1 = tested on: IGROV-1
SF-295 = tested on: SF-295
BT-549 = tested on: BT-549
NCI-H23 = tested on: NCI-H23
LOX IMVI = tested on: LOX IMVI
NCI/ADR-RES = tested on: NCI/ADR-RES
COLO 205 = tested on: COLO 205
SK-MEL-28 = tested on: SK-MEL-28
UACC-257 = tested on: UACC-257
OVCAR-3 = tested on: OVCAR-3
EKVX = tested on: EKVX
OVCAR-5 = tested on: OVCAR-5
SR = tested on: SR
UO-31 = tested on: UO-31
ACHN = tested on: ACHN
MDA-N = tested on: MDA-N
U-251 = tested on: U-251
TK-10 = tested on: TK-10
NCI-H460 = tested on: NCI-H460
K562 = tested on: K562
MCF7 = tested on: MCF7
DU-145 = tested on: DU-145
SN12C = tested on: SN12C
CAKI-1 = tested on: CAKI-1
M14 = tested on: M14
HL-60 = tested on: HL-60
HOP-92 = tested on: HOP-92
HOP-62 = tested on: HOP-62
MDA-MB-231 = tested on: MDA-MB-231
HCT-116 = tested on: HCT-116
A498 = tested on: A498
SNB-19 = tested on: SNB-19
CCRF-CEM = tested on: CCRF-CEM
SF-539 = tested on: SF-539
HT-29 = tested on: HT-29
Malme-3M = tested on: Malme-3M
NCI-H522 = tested on: NCI-H522
NCI-H226 = tested on: NCI-H226
OVCAR-8 = tested on: OVCAR-8
SK-OV-3 = tested on: SK-OV-3
RXF 393 = tested on: RXF 393

CC1(C)CN=C(c2ccc3ccccc3c2O)N1
GI50 (SW-620): > 100 µM (inactive) | GI50 (A549): 23.6 µM (inactive) | GI50 (RPMI-8226): > 100 µM (inactive) | GI50 (MDA-MB-435): > 100 µM (inactive) | GI50 (MOLT-4): > 100 µM (inactive) | GI50 (KM12): > 100 µM (inactive) | GI50 (UACC-62): > 100 µM (inactive) | GI50 (SK-MEL-2): > 100 µM (inactive) | GI50 (SK-MEL-5): > 100 µM (inactive) | GI50 (SF-268): > 100 µM (inactive) | GI50 (T47D): > 100 µM (inactive) | GI50 (OVCAR-4): > 100 µM (inactive) | GI50 (HCT-15): > 100 µM | GI50 (SNB-75): > 100 µM (inactive) | GI50 (786-0): > 100 µM (inactive) | GI50 (HCC 2998): > 100 µM (inactive) | GI50 (Hs-578T): > 100 µM (inactive) | GI50 (PC-3): > 100 µM (inactive) | GI50 (IGROV-1): > 100 µM (inactive) | GI50 (SF-295): 2.27 µM (inactive) | GI50 (BT-549): > 100 µM (inactive) | GI50 (NCI-H23): > 100 µM (inactive) | GI50 (LOX IMVI): > 100 µM (inactive) | GI50 (NCI/ADR-RES): > 100 µM (inactive) | GI50 (COLO 205): > 100 µM (inactive) | GI50 (SK-MEL-28): > 100 µM (inactive) | GI50 (UACC-257): > 100 µM (inactive) | GI50 (OVCAR-3): 22.2 µM (inactive) | GI50 (EKVX): > 100 µM (inactive) | GI50 (OVCAR-5): > 100 µM (inactive) | GI50 (SR): > 100 µM (inactive) | GI50 (UO-31): > 100 µM (inactive) | GI50 (ACHN): > 100 µM (inactive) | GI50 (MDA-N): > 100 µM (inactive) | GI50 (U-251): > 100 µM (inactive) | GI50 (TK-10): > 100 µM (inactive) | GI50 (NCI-H460): > 100 µM (inactive) | GI50 (K562): > 100 µM (inactive) | GI50 (MCF7): > 100 µM (inactive) | GI50 (DU-145): > 100 µM (inactive) | GI50 (SN12C): > 100 µM (inactive) | GI50 (CAKI-1): > 100 µM (inactive) | GI50 (M14): > 100 µM (inactive) | GI50 (HL-60): > 100 µM (inactive) | GI50 (HOP-92): > 100 µM (inactive) | GI50 (HOP-62): > 100 µM (inactive) | GI50 (MDA-MB-231): > 100 µM (inactive) | GI50 (HCT-116): > 100 µM (inactive) | GI50 (A498): > 100 µM (inactive) | GI50 (SNB-19): > 100 µM (inactive) | GI50 (CCRF-CEM): > 100 µM (inactive) | GI50 (SF-539): > 100 µM (inactive)

COc1ccc(/C=C2\Sc3nnc(C)n3N=C2c2cc(F)c(Cl)cc2Cl)cc1OC
GI50 (SW-620): 5.33 µM (inactive) | GI50 (A549): 21.2 µM (inactive) | GI50 (RPMI-8226): 2.58 µM (inactive) | GI50 (MDA-MB-435): 10.4 µM (inactive) | GI50 (MOLT-4): 3.35 µM (inactive) | GI50 (KM12): 15.2 µM (inactive) | GI50 (UACC-62): 16.7 µM (inactive) | GI50 (SK-MEL-2): 15.9 µM (inactive) | GI50 (HT-29): 13.2 µM (inactive) | GI50 (SK-MEL-5): 18.8 µM (inactive) | GI50 (SF-268): 22.4 µM (inactive) | GI50 (T47D): 24.8 µM (inactive) | GI50 (Malme-3M): 18.3 µM (inactive) | GI50 (OVCAR-4): 13.2 µM (inactive) | GI50 (HCT-15): 6.93 µM | GI50 (NCI-H522): 11.3 µM (inactive) | GI50 (786-0): 2.97 µM (inactive) | GI50 (HCC 2998): 17.6 µM (inactive) | GI50 (Hs-578T): 41.9 µM (inactive) | GI50 (PC-3): 18.7 µM (inactive) | GI50 (IGROV-1): 16 µM (inactive) | GI50 (SF-295): 22.1 µM (inactive) | GI50 (BT-549): 17.8 µM (inactive) | GI50 (NCI-H23): 12.4 µM (inactive) | GI50 (NCI-H226): 23.2 µM (inactive) | GI50 (LOX IMVI): 13.8 µM (inactive) | GI50 (NCI/ADR-RES): 14.6 µM (inactive) | GI50 (COLO 205): 22.3 µM (inactive) | GI50 (SK-MEL-28): 23.3 µM (inactive) | GI50 (UACC-257): 17 µM (inactive) | GI50 (OVCAR-3): 4.52 µM (inactive) | GI50 (EKVX): 10.8 µM (inactive) | GI50 (OVCAR-5): 15.6 µM (inactive) | GI50 (UO-31): 10.4 µM (inactive) | GI50 (ACHN): 12.6 µM (inactive) | GI50 (MDA-N): 5.32 µM (inactive) | GI50 (U-251): 15.8 µM (inactive) | GI50 (TK-10): 17.9 µM (inactive) | GI50 (NCI-H460): 20.8 µM (inactive) | GI50 (K562): 3.09 µM (inactive) | GI50 (MCF7): 5.87 µM (inactive) | GI50 (DU-145): 14.7 µM (inactive) | GI50 (SN12C): 17.5 µM (inactive) | GI50 (OVCAR-8): 15.5 µM (inactive) | GI50 (CAKI-1): 8.13 µM (inactive) | GI50 (M14): 13.6 µM (inactive) | GI50 (HL-60): 8.95 µM (inactive) | GI50 (HOP-92): 13.8 µM (inactive) | GI50 (HOP-62): 17 µM (inactive) | GI50 (SK-OV-3): 30.1 µM (inactive) | GI50 (MDA-MB-231): 26.4 µM (inactive) | GI50 (RXF 393): 15.9 µM (inactive) | GI50 (HCT-116): 5.98 µM (inactive) | GI50 (A498): 19.3 µM (inactive) | GI50 (SNB-19): 1.19 µM (inactive) | GI50 (CCRF-CEM): 4.18 µM (inactive) | GI50 (SF-539): 17 µM (inactive)

SC1=NNC2(C(Cl)=N1)c1ccccc1-c1ccccc12
GI50 (SW-620): > 10 µM (inactive) | GI50 (A549): > 10 µM (inactive) | GI50 (RPMI-8226): > 10 µM (inactive) | GI50 (MOLT-4): > 10 µM (inactive) | GI50 (KM12): > 10 µM (inactive) | GI50 (UACC-62): > 10 µM (inactive) | GI50 (SK-MEL-5): > 10 µM (inactive) | GI50 (SF-268): > 10 µM (inactive) | GI50 (T47D): > 10 µM (inactive) | GI50 (Malme-3M): > 10 µM (inactive) | GI50 (OVCAR-4): > 10 µM (inactive) | GI50 (HCT-15): > 10 µM | GI50 (SNB-75): > 10 µM (inactive) | GI50 (786-0): > 10 µM (inactive) | GI50 (HCC 2998): > 10 µM (inactive) | GI50 (Hs-578T): > 10 µM (inactive) | GI50 (IGROV-1): > 10 µM (inactive) | GI50 (BT-549): > 10 µM (inactive) | GI50 (NCI-H23): > 10 µM (inactive) | GI50 (NCI-H226): > 10 µM (inactive) | GI50 (LOX IMVI): > 10 µM (inactive) | GI50 (NCI/ADR-RES): > 10 µM (inactive) | GI50 (COLO 205): > 10 µM (inactive) | GI50 (SK-MEL-28): > 10 µM (inactive) | GI50 (UACC-257): > 10 µM (inactive) | GI50 (EKVX): > 10 µM (inactive) | GI50 (SR): > 10 µM (inactive) | GI50 (UO-31): 6.44 µM (inactive) | GI50 (MDA-N): > 10 µM (inactive) | GI50 (U-251): > 10 µM (inactive) | GI50 (TK-10): > 10 µM (inactive) | GI50 (NCI-H460): > 10 µM (inactive) | GI50 (K562): > 10 µM (inactive) | GI50 (MCF7): > 10 µM (inactive) | GI50 (DU-145): > 10 µM (inactive) | GI50 (SN12C): > 10 µM (inactive) | GI50 (OVCAR-8): > 10 µM (inactive) | GI50 (CAKI-1): > 10 µM (inactive) | GI50 (M14): > 10 µM (inactive) | GI50 (HL-60): > 10 µM (inactive) | GI50 (HOP-92): > 10 µM (inactive) | GI50 (HOP-62): > 10 µM (inactive) | GI50 (SK-OV-3): > 10 µM (inactive) | GI50 (MDA-MB-231): > 10 µM (inactive) | GI50 (A498): > 10 µM (inactive) | GI50 (CCRF-CEM): > 10 µM (inactive) | GI50 (SF-539): > 10 µM (inactive)

Reference: ChEMBL document CHEMBL1201862, “PubChem BioAssay data set” (2004)
